Test results taken from patent publication US6653306B1, “Epoxy-steroidal aldosterone antagonist and angiotensin II antagonist combination therapy” (G.D. Searle & Co., priority 1995, dated 2003).
Several values for one entry are separate records, joined by “and”; a condition that tells them apart may be missing. Equal entries are not always repeated. Where two headings read alike, the source gives them in different places.

How the values were obtained:
[1] = test system: pressor response to AII; assay: Assay C: In vivo intragastric pressor assay response for AII antagonists; design: species or system rat; settings: intragastric, or intraduodenal for examples listed; for Assay C Inhibition: dose cell empty (dose not given)
Method: Assay C: In Vivo Intragastric Pressor Assay Response for AII Antagonists
Male Sprague-Dawley rats weighing 225-300 grams were anesthetized with methohexital (30 mg/kg, i.p.) and catheters were implanted into the femoral artery and vein. The catheters were tunneled subcutaneously to exit dorsally, posterior to the head and between the scapulae. The catheters were filled with heparin (1000 units/ml of saline). The rats were returned to their cage and allowed regular rat chow and water ad libitum. After full recovery from surgery (3-4 days), rats were placed in Lucite holders and the arterial line was connected to a pressure transducer. Arterial pressure was recorded on a Gould polygraph (mmHg). Angiotensin II was administered as a 30 ng/kg bolus via the venous catheter delivered in a 50 μl volume with a 0.2 ml saline flush. The pressor response in mm Hg was measured by the differer.-:e from pre-injection arterial pressure to the maximum pressure achieved. The AII injection was repeated every 10 minutes until three consecutive injections yielded responses within 4 mmHg of each other. These three responses were then averaged and represented the control response to AII. The test compound was suspended in 0.5% methylcellulose in water and was administered by gavage. The volume administered was 2 ml/kg body weight. The standard dose was 3 mg/kg. Angiotensin II bolus injections were given at 30, 45, 60, 75, 120, 150, and 180 minutes after gavage. The pressor response to AII was measured at each time point. The rats were then returned to their cage for future testing. A minimum of 3 days was allowed between tests. Percent inhibition was calculated for each time point following gavage by the following formula:
[(Control Response—Response at time point)/Control Response]×100.

[2] = target: angiotensin II AT1 receptor; assay: Assay A: Angiotensin II binding activity (125I-AII displacement, rat uterine membrane preparation)
[3] = test system: rabbit aortic rings; assay: Assay B: In vitro vascular smooth muscle response for AII (antagonist activity, pA2); format: cell-based; settings: two values per cell separated by / are separate determinations; for Kb: Oryctolagus cuniculus
Outline: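 Endothelium-denuded thoracic aortic rings from male New Zealand white rabbits, in oxygenated Krebs at 37 °C under ~1 g tension; isometric contraction to AII (3×10^−10 to 1×10^−5 M).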

[4] = Rattus norvegicus, dose 3 mg/kg
[5] = in vitro vascular smooth muscle response, read-out: Assay B pA2 (converted)
[6] = in vitro vascular smooth muscle response
[7] = Rattus norvegicus, dose 30 mg/kg
[8] = Rattus norvegicus, dose 10 mg/kg

Row | Structure (SMILES) | inhibition at 3 mg/kg [1, 4] [%] | Assay C Duration ([1]; dose 3 mg/kg) [min] | IC50 [2] [nM] | Kb [3, 5] [nM] | also measured
1 | CCCCn1nc(CCC)nc1Cc1ccc(-c2ccccc2-c2nnn[nH]2)nc1 [Compound 152] | 10 | 140 | 150 | 34.7 | –
2 | CCCCc1cn(-c2c(C)cc(C)cc2C)c(=O)n1Cc1ccc(-c2ccccc2-c2nnn[nH]2)cc1 [Compound 278] | 50 | >180 | 30 | – | Assay B pA2 [3, 6]: 8.49 and 8.51
3 | CCCCc1nc(C(F)(F)CCC)nn1Cc1ccc(-c2ccccc2-c2nnn[nH]2)nc1 [Compound 247] | 20 | 180 | 9.4 | 5.5 | –
4 | CCCCc1nc2c(OC(=O)C(C)C)nnc(O)c2n1Cc1ccc(-c2ccccc2-c2nnn[nH]2)cc1 [Compound 119] | 20 | 60 | – | 0.617 | –
5 | CCCCc1nc2c(OC(=O)Cc3ccccc3)nnc(O)c2n1Cc1ccc(-c2ccccc2-c2nnn[nH]2)cc1 [Compound 124] | 45 | >180 | – | – | Kb ([3]; read-out: Assay B pA2, in vitro vascular smooth muscle response (converted)): 0.38 nM
6 | CCCCc1cn(-c2c(C)cccc2Cl)c(=O)n1Cc1ccc(-c2ccccc2-c2nnn[nH]2)cc1 [Compound 274] | 35 | >180 | 13 | – | Assay B pA2 [3, 6]: 9.06 and 8.85
7 | CCCCc1nc(C(F)(F)CCC)n(Cc2ccc(-c3ccccc3-c3nnn[nH]3)nc2)n1 [Compound 248] | 10 | – | 20 | 20.9 | –
8 | CCCCc1nc(Cc2ccc(-c3ccccc3-c3nnn[nH]3)nc2)n(CCCC)n1 [Compound 150] | 25 | >180 | 14 | 9.33 | –
9 | CCCCc1nc2c(O)nnc(O)c2n1Cc1ccc(-c2ccccc2C(=O)O)cc1 [Compound 109] | – | – | 250 | 50.1 | inhibition at 30 mg/kg [1, 7]: 50%; Assay C Duration ([1]; dose 30 mg/kg): 30 min
10 | CCCCc1cn(-c2c(OC)cccc2OC)c(=O)n1Cc1ccc(-c2ccccc2-c2nnn[nH]2)cc1 [Compound 273] | 25 | >180 | 9.8 | – | Assay B pA2 [3, 6]: 8.53 and 8.61
11 | CCCCc1nc(Cl)nn1Cc1ccc(-c2ccccc2C(=O)O)cc1 [compound 6] | – | – | – | 282 | inhibition at 100 mg/kg ([1]; Rattus norvegicus, dose 100 mg/kg): 90%
12 | CCCCc1cn(-c2c(C)cccc2C)c(=O)n1Cc1ccc(-c2ccccc2-c2nnn[nH]2)cc1 [Compound 275] | 40 | >180 | 6.3 | 0.851 | –
13 | CCCCc1nn(CC(O)c2ccccc2)c(=O)n1Cc1ccc(-c2ccccc2-c2nn[nH]n2)cc1 (stereo not drawn) [Compound 83] | – | – | 3.6 | 5.01 | Assay C Inhibition [1]: 15%
14 | CCCCc1nc(Cl)c(Cl)n1Cc1ccc(-n2cccc2C(=O)O)cc1 [Compound 147] | 74 | 5 to 10 | 5.8 | 2510 | –
15 | CCCCc1nc(Cl)nn1Cc1ccc(-c2ccccc2-c2nnn[nH]2)cc1 [compound 7] | – | – | – | 9.77 | inhibition at 30 mg/kg [1, 7]: 90%
16 | CCCCc1nn(CCCc2ccccc2)c(=O)n1Cc1ccc(-c2ccccc2-c2nn[nH]n2)cc1 [Compound 81] | – | – | 18 | 10 | Assay C Inhibition [1]: 40%
17 | CCCCc1cn(CCc2ccccc2)c(=O)n1Cc1ccc(-c2ccccc2-c2nnn[nH]2)cc1 [Compound 133] | 20 | 180 | 10 | 2 | –
18 | CCCCc1cn(-c2ccccc2Cl)c(=O)n1Cc1ccc(-c2ccccc2-c2nnn[nH]2)cc1 [Compound 135] | 35 | >180 | 16 | 3.16 | –
19 | CCCCn1nc(C(OCC)OCC)nc1Cc1ccc(-c2ccccc2-c2nnn[nH]2)nc1 [Compound 176] | 10 | 150 | 9.8 | 20.4 | –

Row | Structure (SMILES) | inhibition at 3 mg/kg [1, 4] [%] | Assay C Duration ([1]; dose 3 mg/kg) [min] | IC50 [2] [nM] | Kb [3, 5] [nM] | also measured
20 | CCCCc1nc(CCCC)n(Cc2ccc(-n3c(Cl)cc(Cl)c3-c3nnn[nH]3)cc2)n1 [Compound 143] | – | – | 0.052 | 20 | Assay C Inhibition [1]: 85%
21 | CCCCc1nc2c(CCC)nnc(O)c2n1Cc1ccc(-c2ccccc2-c2nnn[nH]2)cc1 [Compound 113] | – | – | – | 3.98 | inhibition at 10 mg/kg [1, 8]: 60%; Assay C Duration ([1]; dose 10 mg/kg): 180 min
22 | CCCCc1nc(Cl)c(CO)n1Cc1ccc(-n2cccc2C(=O)O)cc1 [Compound 148] | 92 | 20 to 30 | – | 1580 | –
23 | CCCCc1nc(CCCC)n(Cc2ccc(-c3ccccc3-c3nnn[nH]3)cn2)n1 [Compound 239] | 20 | – | – | 13.2 | –
24 | CCCCc1nc2c(OC(=O)C3CCCCC3)nnc(O)c2n1Cc1ccc(-c2ccccc2-c2nnn[nH]2)cc1 [Compound 120] | – | – | – | 0.891 | inhibition at 10 mg/kg [1, 8]: 80%; Assay C Duration ([1]; dose 10 mg/kg): 240 min
25 | CCCCc1nc2cnnc(O)c2n1Cc1ccc(-c2ccccc2-c2nnn[nH]2)cc1 [Compound 115] | 40 | >240 | – | 6.31 | –
26 | CCCCc1nc(-c2ccccc2C)n(Cc2ccc(-c3ccccc3-c3nnn[nH]3)nc2)n1 [Compound 262] | – | – | 530 | 603 | –
27 | CCCCc1nc(CCC(=O)O)nn1Cc1ccc(-c2ccccc2-c2nnn[nH]2)cc1 [Compound 63] | – | – | 61 | 17 | –
28 | CCCCn1nc(C(=O)CCC)nc1Cc1ccc(-c2ccccc2-c2nnn[nH]2)nc1 [Compound 160] | – | – | 64 | 13.5 | –
29 | CCCCc1nn(Cc2ccc3ccccc3c2)c(=O)n1Cc1ccc(-c2ccccc2-c2nn[nH]n2)cc1 [Compound 99] | – | – | 280 | 316 | –
30 | CCCCc1nn(CCCCC(=O)O)c(=O)n1Cc1ccc(-c2ccccc2-c2nn[nH]n2)cc1 [Compound 103] | – | – | 12 | 10 | –
31 | CCCCc1nc(CC2CCCCC2)nn1Cc1ccc(-c2ccccc2-c2nnn[nH]2)cc1 [Compound 74] | – | – | 6.5 | 2.75 | –
32 | CCCCc1nn(CCC2CCCCC2)c(=O)n1Cc1ccc(-c2ccccc2-c2nn[nH]n2)cc1 [Compound 89] | – | – | 18 | 12.6 | –
33 | CCCCc1cn(CCCC)c(=O)n1Cc1ccc(-c2ccccc2-c2nnn[nH]2)cc1 [Compound 132] | – | – | 12 | 2.51 | –
34 | CCCCc1nn(C(=O)CCC)c(=O)n1Cc1ccc(-c2ccccc2-c2nn[nH]n2)cc1 [Compound 95] | – | – | 66 | 6.31 | –
35 | CCCCc1nc(Cc2ccc(-c3ccccc3-c3nnn[nH]3)cc2)nn1CCCC [Compound 129] | – | – | 6700 | 5010 | –
36 | CCCCc1nc2c(O)nnc(O)c2n1Cc1ccc(-c2ccccc2-c2nnn[nH]2)cc1 [Compound 111] | – | – | – | 1 | inhibition at 30 mg/kg [1, 7]: 87%
37 | CCCCc1nc(Cc2ccc(-c3ccccc3-c3nnn[nH]3)nc2)n(CC(CC)CC)n1 [Compound 157] | – | – | 530 | 603 | –
